Among the data in PubChem BioAssay (NCI) are TGI values, retold here.

Structures are written as SMILES.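 Cells were grown in 96-well plates and exposed to each compound for 48 hours at five concentrations; endpoints were interpolated linearly between bracketing concentrations, or set to the highest concentration if not reached. TGI is the concentration that stops growth completely.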

Test systems include HCC-2998 colon; HCT-116 colon; M14 melanoma; CCRF-CEM leukemia; U251 CNS; SK-MEL-5 melanoma; SF-295 CNS; NCI/ADR-RES ovarian; K-562 leukemia; COLO 205 colon; NCI-H522 lung; MDA-N; SF-539 CNS; A549 NSCLC; SF-268 CNS; MDA-MB-435; OVCAR-8 ovarian; SR leukemia; MALME-3M melanoma; LOX IMVI melanoma.
Common to all, as to assay: NCI tumour cell line growth inhibition, 48 h

Regarding `Cc1cc(S(=O)(=O)NC(=C(C#N)C#N)[n+]2ccc(N(C)C)cc2)c([S-])cc1Cl`, the TGI in the experiment with HCC-2998 colon, in the experiment on HCT-116 colon, with M14 melanoma, in the experiment on CCRF-CEM leukemia, in the experiment on U251 CNS and in the experiment with SK-MEL-5 melanoma was > 100 µM each time. Further, the TGI in the experiment on SF-295 CNS, with NCI/ADR-RES ovarian, in the experiment on K-562 leukemia, with COLO 205 colon, with NCI-H522 lung and with MDA-N was > 100 µM each time. The TGI in the experiment with SF-539 CNS, with A549 NSCLC, in the experiment on SF-268 CNS, in the experiment with MDA-MB-435, with OVCAR-8 ovarian and in the experiment on SR leukemia was > 100 µM throughout. In the experiment on MALME-3M melanoma, the TGI was > 100 µM.
`CNC1C(O)C(NC)C2OC3(O)C(=O)CC(C)OC3OC2C1O` (stereo not drawn): the TGI in the experiment with HCC-2998 colon, in the experiment with HCT-116 colon, with M14 melanoma, in the experiment on CCRF-CEM leukemia, with U251 CNS and in the experiment on SK-MEL-5 melanoma was > 100 µM each time. The TGI with LOX IMVI melanoma, in the experiment with SF-295 CNS, in the experiment on NCI/ADR-RES ovarian, in the experiment on K-562 leukemia, with COLO 205 colon and with NCI-H522 lung was > 100 µM each time. The TGI in the experiment with MDA-N, with SF-539 CNS, with A549 NSCLC, in the experiment on SF-268 CNS, in the experiment with MDA-MB-435 and in the experiment with OVCAR-8 ovarian was > 100 µM throughout. In the experiment with SR leukemia, the TGI was > 100 µM.
Take `CN(C)CC1CCCC(CN2CCCCC2)C1=O` (stereo not drawn): the TGI is 33.4 µM with HCC-2998 colon; 7.53 µM in the experiment on HCT-116 colon; 18.7 µM with M14 melanoma; 5.48 µM in the experiment on CCRF-CEM leukemia; > 66.9 µM in the experiment with U251 CNS; 33.5 µM with SK-MEL-5 melanoma. The TGI with LOX IMVI melanoma is 18.3 µM; in the experiment with SF-295 CNS, > 100 µM; with NCI/ADR-RES ovarian it was 14.6 µM; with COLO 205 colon, 7.03 µM; in the experiment with NCI-H522 lung, 0.204 µM; in the experiment with MDA-N it was 27.5 µM. The TGI in the experiment on SF-539 CNS was 33.6 µM; in the experiment on A549 NSCLC, > 76.4 µM; with SF-268 CNS it was 40.2 µM; in the experiment with MDA-MB-435 it was 31.1 µM; in the experiment with OVCAR-8 ovarian it was 31.5 µM; with SR leukemia, > 100 µM. This compound showed a TGI in the experiment with MALME-3M melanoma of 6.5 µM.
In the case of `CC(C)OC(=O)Nc1cccc(Cl)c1`, the TGI with HCC-2998 colon, with HCT-116 colon, in the experiment with M14 melanoma, in the experiment on CCRF-CEM leukemia, in the experiment on U251 CNS and in the experiment with SK-MEL-5 melanoma was > 100 µM in each case. Besides, the TGI in the experiment on LOX IMVI melanoma, in the experiment with SF-295 CNS, in the experiment on NCI/ADR-RES ovarian, with K-562 leukemia, in the experiment on COLO 205 colon and in the experiment on MDA-N was > 100 µM each time. Also, the TGI in the experiment on SF-539 CNS, with A549 NSCLC, in the experiment on SF-268 CNS, with MDA-MB-435, in the experiment with OVCAR-8 ovarian and in the experiment with SR leukemia was > 100 µM throughout.
Take `CCN1CCN(c2nc3ccccc3nc2C(=O)c2ccc(OC)cc2)CC1`: the TGI in the experiment on HCC-2998 colon was > 100 µM; in the experiment on HCT-116 colon, 36.7 µM; with M14 melanoma, 37.3 µM; in the experiment with U251 CNS it was > 100 µM; with SK-MEL-5 melanoma it was > 100 µM; in the experiment on LOX IMVI melanoma it was > 100 µM. In addition, the TGI in the experiment on SF-295 CNS, in the experiment with NCI/ADR-RES ovarian, in the experiment on K-562 leukemia, in the experiment on COLO 205 colon, in the experiment with NCI-H522 lung and in the experiment with MDA-N was > 100 µM each time. The TGI in the experiment with SF-539 CNS is > 100 µM; in the experiment with A549 NSCLC it was > 100 µM; in the experiment with SF-268 CNS it was > 100 µM; in the experiment with MDA-MB-435, > 100 µM; in the experiment with OVCAR-8 ovarian, > 100 µM; in the experiment on SR leukemia, 93.4 µM. In addition, the TGI with MALME-3M melanoma amounted to 62.2 µM.
Take `Cc1nc2c(O)cc3c4c(=O)n(C)c(=O)n(C)c4n(Cc4ccccc4)c3c2nc1C`: the TGI with HCC-2998 colon came out at 40.3 µM; in the experiment on HCT-116 colon it was 52.1 µM; with M14 melanoma, 36.6 µM; in the experiment with CCRF-CEM leukemia it was 50 µM; in the experiment with U251 CNS, 35.4 µM; in the experiment with SK-MEL-5 melanoma, 32.8 µM. In addition, the TGI with LOX IMVI melanoma is 37.4 µM; in the experiment with SF-295 CNS, > 100 µM; in the experiment on NCI/ADR-RES ovarian, 74.9 µM; with K-562 leukemia, > 100 µM; in the experiment with COLO 205 colon, 28 µM; in the experiment on MDA-N, 34.2 µM. The TGI was found to be 30 µM with SF-539 CNS; 36.2 µM in the experiment on A549 NSCLC; 32.9 µM with SF-268 CNS; 33.9 µM in the experiment with MDA-MB-435; 33.1 µM with OVCAR-8 ovarian; 57.6 µM in the experiment with SR leukemia. For the same compound, the TGI in the experiment on MALME-3M melanoma was determined as 38.8 µM.
For `O=Nc1c(-c2c(O)[nH]c3ccccc23)[nH]c2ccccc12`, the TGI with HCC-2998 colon is 16.3 µM; in the experiment with HCT-116 colon, > 29.6 µM; in the experiment on M14 melanoma it was 25.9 µM; in the experiment with CCRF-CEM leukemia, 29.7 µM; in the experiment on U251 CNS it was > 65.4 µM; in the experiment on SK-MEL-5 melanoma it was 26.4 µM. The TGI in the experiment with LOX IMVI melanoma is 41.4 µM; in the experiment on SF-295 CNS it was 99.2 µM; with NCI/ADR-RES ovarian, > 100 µM; with K-562 leukemia it was > 100 µM; with COLO 205 colon it was 34.8 µM; in the experiment on NCI-H522 lung, 20.9 µM. For the same compound, the TGI was > 47.4 µM in the experiment with MDA-N; > 100 µM with SF-539 CNS; > 55.1 µM with A549 NSCLC; > 74.1 µM in the experiment on SF-268 CNS; > 39.7 µM in the experiment on MDA-MB-435; > 45.5 µM in the experiment with OVCAR-8 ovarian. Besides, the TGI in the experiment on SR leukemia was > 100 µM; with MALME-3M melanoma, 27.8 µM.
Consider `CN(C)CCCNC(=O)c1cc(NC(=O)c2cc(NS(=O)(=O)c3ccc4c(c3)C(=O)c3ccccc3C4=O)cn2C)cn1C`, for which the TGI in the experiment with HCC-2998 colon, in the experiment with HCT-116 colon, in the experiment with M14 melanoma, in the experiment with CCRF-CEM leukemia, in the experiment on U251 CNS and in the experiment with SK-MEL-5 melanoma was > 100 µM throughout. Moreover, the TGI with LOX IMVI melanoma, in the experiment with SF-295 CNS, with NCI/ADR-RES ovarian, with K-562 leukemia, in the experiment on COLO 205 colon and in the experiment with NCI-H522 lung was > 100 µM each time. Besides, the TGI with MDA-N, with SF-539 CNS, with A549 NSCLC, in the experiment on SF-268 CNS, in the experiment with MDA-MB-435 and in the experiment on OVCAR-8 ovarian was > 100 µM each time. Also, the results for the TGI in the experiment with SR leukemia and in the experiment on MALME-3M melanoma were > 100 µM and 79.4 µM, respectively.
Take `c1ccc(CSC2(SCc3ccccc3)CCCC2)cc1`: the TGI with HCC-2998 colon, in the experiment with HCT-116 colon, in the experiment with M14 melanoma, in the experiment on CCRF-CEM leukemia, in the experiment on U251 CNS and in the experiment with SK-MEL-5 melanoma was > 10 µM throughout. Moreover, the TGI in the experiment with LOX IMVI melanoma, with SF-295 CNS, with NCI/ADR-RES ovarian, in the experiment on K-562 leukemia, in the experiment on COLO 205 colon and in the experiment on NCI-H522 lung was > 10 µM each time. For the same compound, the TGI with MDA-N, in the experiment on SF-539 CNS, in the experiment on A549 NSCLC, with SF-268 CNS, in the experiment on MDA-MB-435 and with OVCAR-8 ovarian was > 10 µM throughout. In addition, the TGI in the experiment with SR leukemia and in the experiment with MALME-3M melanoma was > 10 µM in each case.
